Test results published in patent US6872818B2, “Ammonium sulfate for neutralization of inhibitory effects” (QIAGEN GmbH, priority 2001, dated 2005).

What was measured:
cDNA synthesis = assay: Reverse transcription / PCR in presence of SYBRGREEN dye; type: biochemical; conditions: final concentration of 100×
Procedure: Reverse transcription reactions containing 0×, 0.001×, 0.01×, 0.1×, 1×, 10× and 100× SYBRGREEN® dye were performed. In order to quantify the generated cDNA after RT-reaction, 2 μl of the RT reaction was transferred to a 20 μl PCR mixture. PCR products were analyzed by gel-electrophoresis.

RT-PCR reaction = conditions: final concentration of 1 mM
Procedure: In order to quantify the generated cDNA after RT reactions, 2 μl of each RT reaction mixture was transferred to a 20 μl PCR mixture.

In the case of `CCCN(CCCN(C)C)c1cc(/C=C2/Sc3ccccc3N2C)c2ccccc2[n+]1-c1ccccc1` [SYBRGREEN® dye], the cDNA synthesis (cDNA synthesis) is reported as “total loss of cDNA synthesis”.
`NCCCNCCCCNCCCN` [spermine] was tested, and the “reduction in signals produced from an RT-PCR reaction” value (RT-PCR reaction) was “up to 4 fold”.
